Results on 33 compounds are retold here after ChEMBL document CHEMBL1139117, “Novel 4-(6,7-dimethoxy-1,2,3,4-tetrahydroisoquinolin-2-yl)methylbenzofuran derivatives as selective alpha(2C)-adrenergic receptor antagonists” (Bioorg Med Chem Lett, 2007).

Series [1] addresses T1, Alpha-2C adrenergic receptor (Homo sapiens) (UniProt P18825).
T1 sequence (whole entry): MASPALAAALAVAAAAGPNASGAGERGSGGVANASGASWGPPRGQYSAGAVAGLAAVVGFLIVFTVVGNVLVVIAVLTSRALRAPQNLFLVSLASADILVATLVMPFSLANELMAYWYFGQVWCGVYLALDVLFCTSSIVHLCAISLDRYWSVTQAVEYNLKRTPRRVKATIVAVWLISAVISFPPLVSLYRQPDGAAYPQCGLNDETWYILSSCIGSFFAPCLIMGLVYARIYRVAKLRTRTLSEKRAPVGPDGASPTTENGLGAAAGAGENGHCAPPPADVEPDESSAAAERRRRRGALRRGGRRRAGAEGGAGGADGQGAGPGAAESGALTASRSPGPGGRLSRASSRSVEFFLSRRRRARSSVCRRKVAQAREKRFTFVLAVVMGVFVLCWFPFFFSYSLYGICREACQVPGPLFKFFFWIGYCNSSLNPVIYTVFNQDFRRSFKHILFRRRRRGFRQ
The series is described as follows: Displacement of [3H]MK912 from adrenergic alpha-2C receptor in HepG2 cells at 0.1 uM. It is filed as cell-based.

For series [2], the target named is T2, Alpha-2A adrenergic receptor (Homo sapiens) (UniProt P08913).
T2 sequence (whole entry): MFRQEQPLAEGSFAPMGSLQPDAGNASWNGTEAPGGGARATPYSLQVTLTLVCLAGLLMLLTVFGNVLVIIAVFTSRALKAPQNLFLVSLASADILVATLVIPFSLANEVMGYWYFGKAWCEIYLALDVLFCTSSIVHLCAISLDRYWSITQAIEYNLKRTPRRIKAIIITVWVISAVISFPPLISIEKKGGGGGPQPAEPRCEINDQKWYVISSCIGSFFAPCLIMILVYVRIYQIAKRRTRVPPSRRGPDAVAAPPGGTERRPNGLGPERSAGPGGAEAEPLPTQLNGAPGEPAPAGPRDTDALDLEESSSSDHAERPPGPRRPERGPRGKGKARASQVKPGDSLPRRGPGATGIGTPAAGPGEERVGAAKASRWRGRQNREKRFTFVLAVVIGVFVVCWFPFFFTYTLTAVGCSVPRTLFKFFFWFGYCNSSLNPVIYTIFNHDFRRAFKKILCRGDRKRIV
The series is described as follows: Displacement of [3H]MK912 from adrenergic alpha2A receptor in HT29 cells at 0.1 uM. It is filed as cell-based. The settings on record: HT-29. Background: Displacement assays read how much labelled ligand stays bound in the presence of the test substance.

Series [3] has as its target T3, Alpha-2B adrenergic receptor (Homo sapiens) (UniProt P18089).
T3 sequence (whole entry): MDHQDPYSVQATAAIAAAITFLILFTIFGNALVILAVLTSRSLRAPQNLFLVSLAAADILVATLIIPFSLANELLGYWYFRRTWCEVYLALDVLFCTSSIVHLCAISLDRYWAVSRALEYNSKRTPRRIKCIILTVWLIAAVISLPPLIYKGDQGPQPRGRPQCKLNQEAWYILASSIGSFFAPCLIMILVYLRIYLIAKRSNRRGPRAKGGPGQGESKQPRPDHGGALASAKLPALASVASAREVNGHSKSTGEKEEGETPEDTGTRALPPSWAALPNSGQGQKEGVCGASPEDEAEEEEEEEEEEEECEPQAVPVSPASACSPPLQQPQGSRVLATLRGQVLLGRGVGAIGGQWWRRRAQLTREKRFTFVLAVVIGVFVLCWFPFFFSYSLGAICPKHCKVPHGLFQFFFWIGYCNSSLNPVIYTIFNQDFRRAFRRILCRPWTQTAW
The series is described as follows: Displacement of [3H]MK912 from adrenergic alpha-2B receptor expressed in COS7 cells at 0.1 uM. It is filed as cell-based. Particulars: COS-7.

In series [4] the target is T4, Alpha-2C adrenergic receptor (Homo sapiens, UniProt P18825).
T4 sequence (P18825 whole entry): T1 sequence (whole entry)
The series is described as follows: Displacement of [3H]MK912 from adrenergic Alpha-2C receptor in HepG2 cells. It is filed as cell-based.

Series [5] deals with T5, Alpha-2B adrenergic receptor (Homo sapiens, UniProt P18089).
T5 sequence (P18089 whole entry): T3 sequence (whole entry)
The series is described as follows: Displacement of [3H]MK912 from adrenergic alpha-2B receptor expressed in COS7 cells. It is filed as cell-based, COS-7.

The target of series [6] is T6, Alpha-2A adrenergic receptor (Homo sapiens, UniProt P08913).
T6 sequence (P08913 whole entry): T2 sequence (whole entry)
The series is described as follows: Displacement of [3H]MK-912 from adrenergic alpha2A receptor in HT29 cells. It is filed as cell-based, HT-29.

Series [7] concerns Callithrix jacchus. The series is described as follows: Activity against […] induced dyskinetic activity in marmoset at 30 mg/kg, po. It is filed as functional, organism-based. More on the design: dose 30 mg/kg.
Series [8] in a line: AUC in mormoset at 2.5 mg/kg. It is filed as ADME, organism-based, Callithrix jacchus. On the set-up: dose 2.5 mg/kg. Particulars: marmoset, plasma.
The subject of series [9] is Callithrix jacchus. The series is described as follows: Activity against […] induced dyskinetic activity in marmoset at 2.5 mg/kg, po. On the set-up: dose 2.5 mg/kg. It is filed as functional, organism-based.

By inhibition is commonly meant the change of the read-out against control, counted positive when it falls. High values mean a strong effect, low ones a weak effect. By Ki is commonly meant a measure of affinity in units of concentration, obtained from inhibition or displacement. The term AUC denotes concentration integrated over time. Low readings indicate less exposure, high ones more exposure.

Calls of active or inactive are those of the source. The rule behind the calls is not given here.

As to `COc1cc2c(cc1OC)CN(Cc1ccc(OC)c3oc(-c4cccc(F)c4)cc13)CC2`, the figures for the inhibition in series [1], in series [2] and in [3] were 52%, 3% and 13%, respectively.

`COc1cc2c(cc1OC)CN(Cc1ccc(OC)c3oc(-c4ccccc4F)cc13)CC2`: the Ki in series [4] is 11 nM; in [5] it was 299 nM; in [6] it was 857 nM.

For the compound `COc1cc2c(cc1OC)CN(Cc1ccc(OC)c3oc(C(=O)N4CCC(N5CCCC5)CC4)cc13)CC2`, the Ki worked out at 3.5 nM in series [4], 1360 nM in series [5] and 186 nM in series [6].

Regarding `COc1cc2c(cc1OC)CN(Cc1ccc3cc(C(=O)NCCN(C)C)oc3c1OC)CC2`, the inhibition in series [1] is 65%; in series [2], 20%; in series [3] it was 15%.

Consider `COc1cc2c(cc1OC)CN(Cc1ccc(OC)c3oc(-c4ccccc4OC)cc13)CC2`, for which the values for the inhibition in series [1], in [2] and in series [3] were 35%, 11% and 20%, respectively.

With `COc1cc2c(cc1OC)CN(Cc1ccc(OC)c3oc(C(=O)NC4CN5CCC4CC5)cc13)CC2` (stereo not given), the Ki in [4] came to 0.8 nM; in [5], 857 nM; in [6] it was 42 nM.

Turning to `COc1cc2c(cc1OC)CN(Cc1ccc(OC)c3oc(-c4cccc(C(=O)NCCN(C)C)c4)cc13)CC2`, the inhibition constant Ki was 9.4 nM in series [4], 584 nM in series [5] and 216 nM in series [6].

In the case of `COc1cccc(-c2cc3c(CN4CCc5cc(OC)c(OC)cc5C4)ccc(OC)c3o2)c1`, the results for the Ki in series [4], in series [5] and in series [6] were 19 nM, 804 nM and 2550 nM, respectively.

With `COc1cc2c(cc1OC)CN(Cc1ccc(OC)c3oc(-c4cccnc4)cc13)CC2`, the inhibition in [1] was 62%.

On to `COc1cc2c(cc1OC)CN(Cc1ccc(OC)c3oc(-c4ccccn4)cc13)CC2`, for which the Ki in [4] worked out at 9.6 nM; in series [5], 330 nM; in series [6] it was 135 nM.

Take `COc1cc2c(cc1OC)CN(Cc1cnc(N)n3nc(-c4ccco4)nc13)CC2`: the inhibition constant (Ki) in [4] was found to be 19 nM; in [5], 370 nM; in series [6], 400 nM.

For `COc1ccc(CN2CCN(c3ccccc3)CC2)c2cc(-c3ccccc3)oc12`, the inhibition in series [1] worked out at 29%.

With `COc1cc2c(cc1OC)CN(Cc1ccc(OC)c3oc(-c4ccncc4)cc13)CC2`, the inhibition in series [1] came to 35%.

Compound `COc1ccc(-c2cc3c(CN4CCc5cc(OC)c(OC)cc5C4)ccc(OC)c3o2)cc1` registered an inhibition in series [1] of 56%.

With `COc1cc2c(cc1OC)CN(Cc1cc(OC)c3oc(-c4ccccc4)cc3c1)CC2`, the inhibition in series [1] worked out at 19%.

Take `COc1ccc(CN2CCc3ccccc3C2)c2cc(-c3ccccc3)oc12`: the inhibition worked out at 54% in [1], 30% in series [2] and 51% in series [3].

Consider `COc1cc2c(cc1OC)CN(Cc1ccc(OC)c3oc(C(=O)NCCN(C)C)cc13)CC2`, for which the Ki in [4] was found to be 9.4 nM; in series [5], 2070 nM; in series [6], 454 nM. The outcome in the series with Callithrix jacchus [7] was inactive. Moreover, the AUC in [8] amounted to 144 ng·h/mL.

As for `COc1cc2c(cc1OC)CN(Cc1ccc(OC)c3oc(C(=O)NCCNC(C)=O)cc13)CC2`, the inhibition in [1] was 9%.

`COc1cc2c(cc1OC)CN(Cc1ccc(OC)c3oc(-c4ccco4)cc13)CC2`: the Ki was found to be 8 nM in series [4], 160 nM in [5] and 204 nM in [6].

Turning to `COc1cc2c(cc1OC)CN(Cc1ccc(OC)c3oc(-c4ccc(C(F)(F)F)cc4)cc13)CC2`, in series [1], the inhibition was 18%.

The compound `COc1cc2c(cc1OC)CN(Cc1ccc(OC)c3oc(-c4ccc(F)cc4)cc13)CC2` returned an inhibition in [1] of 41%.

Turning to `COc1cc2c(cc1OC)CN(Cc1ccc(OC)c3oc(-c4ccccc4)cc13)CC2`, the inhibition constant (Ki) worked out at 20 nM in [4], 752 nM in series [5] and 1740 nM in series [6]. Further, in series [8], the AUC was found to be 11 ng·h/mL. The result in the series on Callithrix jacchus [9] was Active.

On to `COc1ccc(CN2CCc3ccccc3C2)c2cc(C(=O)NCCN(C)C)oc12`, for which the figures for the inhibition in series [1], in series [2] and in [3] were 94%, 88% and 51%, respectively.

Take `CCCNC(=O)c1cc2c(CN3CCc4cc(OC)c(OC)cc4C3)ccc(OC)c2o1`: the inhibition in series [1] came out at 20%.

Turning to `COc1ccc(CN2CCN(c3ccccc3)CC2)c2cc(C(=O)NCCN(C)C)oc12`, the inhibition in [1] is 68%; in series [2] it was 80%; in series [3], 33%.

In [1], `COc1cc2c(cc1OC)CN(Cc1cc(OC)c3oc(C(=O)NCCN(C)C)cc3c1)CC2` gave an inhibition of 41%.

`COc1cc2c(cc1OC)CN(Cc1ccc(OC)c3oc(-c4cccc(C#N)c4)cc13)CC2` yielded an inhibition in [1] of 42%.

On to `COc1cc2c(cc1OC)CN(Cc1ccc(OC)c3oc(C(=O)NCCO)cc13)CC2`, for which, in series [1], the inhibition is 6%.

Take `COc1cc2c(cc1OC)CN(Cc1ccc(OC)c3oc(-c4cccc(C(=O)NCCO)c4)cc13)CC2`: the inhibition in series [1] stood at 54%; in series [2] it was 29%; in [3], 31%.

Turning to `COc1cc2c(cc1OC)CN(Cc1ccc(OC)c3oc(C(=O)NCC(C)(C)N)cc13)CC2`, the Ki came out at 4.2 nM in [4], 1540 nM in [5] and 141 nM in series [6].

In series [1], `CCCNC(=O)c1cccc(-c2cc3c(CN4CCc5cc(OC)c(OC)cc5C4)ccc(OC)c3o2)c1` returned an inhibition of 48%.

Consider `COc1cc2c(cc1OC)CN(Cc1ccc3cc(-c4ccccc4)oc3c1OC)CC2`, for which the inhibition in series [1] came out at 39%.

For `COc1cc2c(cc1OC)CN(Cc1ccc(OC)c3oc(-c4ccccc4C(F)(F)F)cc13)CC2`, the results for the inhibition constant Ki in series [4], in series [5] and in [6] were 18 nM, 949 nM and 304 nM, respectively.
